Experiment: DPPH free radical scavenging ability
Assay type: biochemical
Description: For example, a method using DPPH(1,1-diphenyl-2-picrylhydrazin) can be used.
DPPH scavenging ability, as described later, was evaluated by using each fraction.
4 ml of samples with 0.1, 0.05, 0.005, 0.001, 0.0005 and 0.0001 mg/ml diluted with methanol and 1 ml of 0.1 mM DPPH methanol solution were put into test tubes and mixed well, and left in a dark place for 30 minutes. Then absorbance of the mixture at 520 nm was read and compared with that of the BHT standard solution. The reducing power of samples can be indicated as scavenging activity (SC50) and SC50 is the concentration of samples that makes the concentration of DPPH reduce to 50%.

## Cc1cc(C(C)(C)C)c(O)c(C(C)(C)C)c1 [BHT, butylated hydroxy toluene]
Conc. 10 ug/ml
  Free radical removal ability: 23.30 ± 1.94%
Conc. 50 ug/ml
  Free radical removal ability: 68.41 ± 1.55%
Conc. 100 ug/ml
  Free radical removal ability: 87.73 ± 0.64%
Conc. 500 ug/ml
  Free radical removal ability: 96.03 ± 0.12%

Reference: patent publication US20070065524A1, “Pharmaceutical composition containing guaiacol derivatives and syringol derivatives extracted from natural plant vinegar” (priority 2003, published 2007)
